Results: the NIST ThermoML archive (doi:10.1021/je0340250)

Key:
[1] = xn = mol fraction of the nth substance listed

C1COCCN1 [tetrahydro-1,4-oxazine]
Conditions | surface tension liquid-gas [mN/m]
298.15 K | 37.68
308.15 K | 36.46
318.15 K | 35.24
328.15 K | 34.02

CN1CCOCC1 [N-methylmorpholine]
Conditions | surface tension liquid-gas [mN/m]
298.15 K | 28.22
308.15 K | 27.2
318.15 K | 26.18
328.15 K | 25.15

CN1CCOCC1 [N-methylmorpholine] + O
surface tension liquid-gas [mN/m], [1]
Conditions | 298.15 K | 308.15 K | 318.15 K | 328.15 K
x1 = 0.0082 | 69.64 | 67.64 | 65.75 | 63.98
x1 = 0.0256 | 54.94 | 53.18 | 51.42 | 49.66
x1 = 0.0481 | 50.58 | 48.64 | 46.7 | 44.76
x1 = 0.0539 | 49.42 | 47.71 | 46 | 44.3
x1 = 0.0747 | 46.86 | 45.35 | 43.83 | 42.32
x1 = 0.0992 | 44.62 | 43.24 | 41.87 | 40.49
x1 = 0.1962 | 38.66 | 37.36 | 36.05 | 34.75
x1 = 0.2972 | 34.9 | 33.66 | 32.43 | 31.19
x1 = 0.395 | 32.72 | 31.54 | 30.35 | 29.16
x1 = 0.4993 | 31.33 | 30.17 | 29.02 | 27.86
x1 = 0.5952 | 30.56 | 29.47 | 28.37 | 27.28
x1 = 0.6979 | 29.81 | 28.73 | 27.65 | 26.57
x1 = 0.8028 | 29.24 | 28.14 | 27.03 | 25.93
x1 = 0.8925 | 28.81 | 27.69 | 26.57 | 25.45
x1 = 1 | 28.22 | 27.2 | 26.18 | 25.15

O [water] + C1COCCN1
[1], x2 = 0
Conditions | surface tension liquid-gas [mN/m]
298.15 K | 72.01
308.15 K | 70.41
318.15 K | 68.79
328.15 K | 67.17
